Test results reported in ChEMBL document CHEMBL1132772, “NMR line-broadening and transferred NOESY as a medicinal chemistry tool for studying inhibitors of the hepatitis C virus NS3 protease domain” (Bioorg Med Chem Lett, 2000).
Starred links: 1 amine or outer side, 2 acyl side, 3 side chain; linkers in the order of their positions; H or OH if unused. Non-standard residues stand in square brackets, D forms with d. Residues, ends and D or L forms follow the SMILES beside them. *: point of attachment. CH2(1-naphthyl) = c1ccc2c(C*)cccc2c1; Hyp = O=C(O)[C@@H]1C[C@@H](O)CN1; Suc = O=C(CCC(=O)[*:2])[*:1]; Nva = CCC[C@H](N)C(=O)O; Ac3c = NC1(C(=O)O)CC1

Target: NS3 (Hepatitis C virus, UniProt A3EZJ3)
Test: Inhibitory concentration required against NS3 Protease of Hepatitis C Virus
Design: species or system Hepacivirus hominis

Chain of NS3 (A3EZJ3 whole entry): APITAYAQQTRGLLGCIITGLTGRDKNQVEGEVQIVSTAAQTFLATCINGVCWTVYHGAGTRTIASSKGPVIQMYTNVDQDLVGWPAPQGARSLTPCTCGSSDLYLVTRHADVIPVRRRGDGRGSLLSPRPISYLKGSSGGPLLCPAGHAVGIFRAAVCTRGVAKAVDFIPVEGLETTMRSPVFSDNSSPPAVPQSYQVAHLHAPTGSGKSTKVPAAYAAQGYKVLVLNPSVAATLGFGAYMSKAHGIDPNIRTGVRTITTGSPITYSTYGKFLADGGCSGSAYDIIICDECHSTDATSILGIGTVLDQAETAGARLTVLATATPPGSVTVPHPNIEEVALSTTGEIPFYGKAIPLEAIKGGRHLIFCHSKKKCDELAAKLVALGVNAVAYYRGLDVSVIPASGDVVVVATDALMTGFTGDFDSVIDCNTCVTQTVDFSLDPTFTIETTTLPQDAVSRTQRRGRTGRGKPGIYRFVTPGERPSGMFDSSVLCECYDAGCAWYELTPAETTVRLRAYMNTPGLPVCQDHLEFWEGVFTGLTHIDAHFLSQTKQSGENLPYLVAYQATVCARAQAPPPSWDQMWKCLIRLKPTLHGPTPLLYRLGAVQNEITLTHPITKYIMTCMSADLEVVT

IC50 [µM]	SMILES
5.5	CC[C@H](C)[C@H](NC(=O)CCC(=O)O)C(=O)N[C@H](C(=O)N1C[C@H](OCc2cccc3ccccc23)C[C@H]1C(=O)NC1(C(=O)O)CC1)C(C)C (Suc-IV[Hyp](CH2(1-naphthyl))[Ac3c]-OH)
22	CCC[C@H](NC(=O)[C@@H]1C[C@@H](OCc2cccc3ccccc23)CN1C(=O)[C@@H](NC(=O)[C@@H](NC(=O)CCC(=O)O)[C@@H](C)CC)C(C)C)C(=O)O (Suc-IV[Hyp](CH2(1-naphthyl))[Nva]-OH)
